Reference: ChEMBL document CHEMBL1132957, “Design of potent dicyclic (4-10/5-8) gonadotropin releasing hormone (GnRH) antagonists” (J Med Chem, 2000)
pKi: −log10 of the molar value. Calls of active or inactive are those of the source. The calls are words filed in the database; no cut-off is given here. Positions of bridges follow the written chain, without caps; N, C: chain ends. Non-standard residues stand in square brackets, D forms with d. Residues, ends and D or L forms follow the SMILES beside them. dPhe(4-F) = N[C@H](Cc1ccc(F)cc1)C(=O)O; d2Nal = N[C@H](Cc1ccc2ccccc2c1)C(=O)O; Dap = NC[C@H](N)C(=O)O

Experiments:
[1] = target: T1, Gonadotropin-releasing hormone receptor (Rattus norvegicus, UniProt P30969); test: Competitive radioligand binding assay, in human HEK293 cells stably transfected with the rat Gonadotropin-releasing hormone receptor; format: cell-based
T1 sequence (P30969 whole entry): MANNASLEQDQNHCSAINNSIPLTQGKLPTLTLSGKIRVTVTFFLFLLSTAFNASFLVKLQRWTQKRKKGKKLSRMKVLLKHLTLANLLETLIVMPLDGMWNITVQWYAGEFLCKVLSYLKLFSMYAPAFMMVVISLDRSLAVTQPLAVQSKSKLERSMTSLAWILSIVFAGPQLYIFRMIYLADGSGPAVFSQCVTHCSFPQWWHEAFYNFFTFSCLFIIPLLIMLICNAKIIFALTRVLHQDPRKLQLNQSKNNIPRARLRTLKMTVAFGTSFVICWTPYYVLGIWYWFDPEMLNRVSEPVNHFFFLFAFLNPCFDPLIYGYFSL

Rattus norvegicus [2] = test: Evaluated for the ovulation effects in the rat by administering the drug at the doses (25 ug); 4/4; format: functional, organism-based
Rattus norvegicus [3] = test: Evaluated for the ovulation effects in the rat by administering the drug at the doses (5.0 ug); 4/7; format: functional, organism-based
Rattus norvegicus [4] = test: Evaluated for the ovulation effects in the rat by administering the drug at the doses (500 ug); 3/8; format: functional, organism-based
Rattus norvegicus [5] = test: Evaluated for the ovulation effects in the rat by administering the drug at the doses (100 ug); 5/5; format: functional, organism-based
Rattus norvegicus [6] = test: Evaluated for the ovulation effects in the rat by administering the drug at the doses (1.0 ug); 4/4; format: functional, organism-based
Rattus norvegicus [7] = test: Evaluated for the ovulation effects in the rat by administering the drug at the doses (2.5 ug); 3/8; format: functional, organism-based
Rattus norvegicus [8] = test: Evaluated for the ovulation effects in the rat by administering the drug at the doses (2.5 ug); 2/8
Rattus norvegicus [9] = test: Evaluated for the ovulation effects in the rat by administering the drug at the doses (5.0 ug); 0/6; format: functional, organism-based

Structure (SMILES) | pKi ([1]; hek293) | pKi [1] | further results
CC(=O)N[C@H](Cc1ccc2ccccc2c1)C(=O)N[C@H](Cc1ccc(F)cc1)C(=O)N[C@H](Cc1c[nH]c2ccccc12)C(=O)N[C@H]1CC(=O)NCC[C@@H](C(N)=O)NC(=O)[C@@H]2CCCN2C(=O)[C@H](CCCNC(=N)N)NC(=O)[C@H](CC(C)C)NC(=O)[C@@H](CCCNC(=N)N)NC(=O)[C@H](Cc2ccc(O)cc2)NC1=O | 8.00 |  | 
CC(=O)N[C@H](Cc1ccc2ccccc2c1)C(=O)N[C@H](Cc1ccc(Cl)cc1)C(=O)N[C@H](Cc1cccnc1)C(=O)N[C@H]1CC(=O)NC[C@@H](C(N)=O)NC(=O)[C@@H]2CCCN2C(=O)[C@@H]2CCNC(=O)[C@H](Cc3ccccc3)NC(=O)C[C@H](NC1=O)C(=O)N[C@H](CCCN=C(N)N)C(=O)N[C@@H](CC(C)C)C(=O)N2 |  | 7.92 | Activity (Rattus norvegicus [2]): inactive
CC(=O)N[C@H](Cc1ccc2ccccc2c1)C(=O)N[C@H](Cc1ccc(Cl)cc1)C(=O)N[C@H](Cc1cccnc1)C(=O)N[C@H]1CC(=O)NC[C@@H](C(N)=O)NC(=O)[C@@H]2CCCN2C(=O)[C@@H]2CCNC(=O)CCNC(=O)C[C@H](NC1=O)C(=O)N[C@H](CCCN=C(N)N)C(=O)N[C@@H](CC(C)C)C(=O)N2 |  | 9.43 | Activity (Rattus norvegicus [3]): Weak activity
CC(=O)N[C@H](Cc1ccc2ccccc2c1)C(=O)N[C@H](Cc1ccc(F)cc1)C(=O)N[C@H](Cc1c[nH]c2ccccc12)C(=O)N[C@H]1CCC(=O)NC(C(N)=O)NC(=O)[C@@H]2CCCN2C(=O)[C@H](CCCNC(=N)N)NC(=O)[C@H](CC(C)C)NC(=O)[C@@H](CCCNC(=N)N)NC(=O)[C@H](Cc2ccc(O)cc2)NC1=O (some centres not stated) | 8.89 |  | 
CC(=O)N[C@H](Cc1ccc2ccccc2c1)C(=O)N[C@H](Cc1ccc(Cl)cc1)C(=O)N[C@H](Cc1cccnc1)C(=O)N[C@H]1CC(=O)NC[C@@H](C(N)=O)NC(=O)[C@@H]2CCCN2C(=O)[C@@H]2CCNC(=O)[C@@H](Cc3ccccc3)NC(=O)CC[C@H](NC1=O)C(=O)N[C@H](CCCN=C(N)N)C(=O)N[C@@H](CC(C)C)C(=O)N2 |  | 6.92 | Activity (Rattus norvegicus [4]): Weak activity; Activity (Rattus norvegicus [5]): inactive
CC(=O)N[C@H](Cc1ccc2ccccc2c1)C(=O)N[C@H](Cc1ccc(Cl)cc1)C(=O)N[C@H](Cc1cccnc1)C(=O)N[C@H]1CC(=O)NC[C@@H](C(N)=O)NC(=O)[C@@H]2CCCN2C(=O)[C@@H]2CCNC(=O)[C@H](Cc3c[nH]cn3)NC(=O)CC[C@H](NC1=O)C(=O)N[C@H](CCCN=C(N)N)C(=O)N[C@@H](CC(C)C)C(=O)N2 |  | 10.00 | Activity (Rattus norvegicus [6]): inactive; Activity (Rattus norvegicus [7]): Weak activity
CC(=O)N[C@H](Cc1ccc2ccccc2c1)C(=O)N[C@H](Cc1ccc(F)cc1)C(=O)N[C@H](Cc1c[nH]c2ccccc12)C(=O)N[C@H]1CC(=O)NC[C@@H](C(N)=O)NC(=O)[C@@H]2CCCN2C(=O)[C@H](CCCN=C(N)N)NC(=O)[C@H](CC(C)C)NC(=O)[C@@H](CCCN=C(N)N)NC(=O)[C@H](Cc2ccc(O)cc2)NC1=O (Ac-[d2Nal][dPhe(4-F)][dW]DY[dR]LRP[Dap]-NH2; lactam 4-10) | 9.44 |  | 
CC(=O)N[C@H](Cc1ccc2ccccc2c1)C(=O)N[C@H](Cc1ccc(Cl)cc1)C(=O)N[C@H](Cc1cccnc1)C(=O)N[C@H]1CC(=O)NC[C@@H](C(N)=O)NC(=O)[C@@H]2CCCN2C(=O)[C@@H]2CCNC(=O)[C@H](Cc3ccc(Cl)cc3)NC(=O)CC[C@H](NC1=O)C(=O)N[C@H](CCCN=C(N)N)C(=O)N[C@@H](CC(C)C)C(=O)N2 |  | 9.64 | Activity (Rattus norvegicus [8]): Weak activity; Activity (Rattus norvegicus [9]): Active
CC[C@H](NC(C)=O)C(=O)N[C@@H](Cc1ccc(Cl)cc1)C(=O)N[C@@H](Cc1c[nH]c2ccccc12)C(=O)N[C@@H](CC(=O)O)C(=O)N[C@@H]1CCC(=O)NCCCC[C@@H](C(=O)N2CCC[C@@H]2C(=O)N[C@@H](C)C(N)=O)NC(=O)[C@H](CC(C)C)NC(=O)[C@@H](CCCNC(=N)N)NC1=O (stereo in doubt; 13) | 9.08 |  | 
